Test results taken from patent US10675244B2, “Microvesicles derived from nucleated, mammalian cells and use thereof” (MDIMUNE INC., priority 2009, dated 2020).

Key:
[1] = 6 hours after tail vein injection; 100 μg microvesicles or 30 μg doxorubicin
Description: After cultivation for 10 days, PBS, PBS containing 100 μg of the extruded microvesicles (doxorubicin-microvesicle), or PBS containing 30 μg of doxorubicin was injected at a dose of 100 μl into mice via the tail vein.
Six hours after the injection, cancer tissue, the spleen and the heart were excised from the mice and fixed for 24 hours in 4% paraformaldehyde. For dehydration, the fixed tissues were immersed once in 70% ethanol, four times in 95% ethanol, three times in 100% ethanol, and three times in 100% xylene, each time for one hour in all cases. Thereafter, the tissues were embedded in paraffin, cut into sections 4 μm thick, and attached onto slide glass. The paraffin was melted by incubation at 60° C. for one hour. For hydration, the tissues were immersed three times in 100% xylene, four times in 100% ethanol, and three times in 95% ethanol, each time for one min in all cases, followed by storage for 5 min in flowing water.
After the hydration, the tissues were subjected to immunohistochemistry to examine whether doxorubicin was delivered to each tissue. In this regard, antigen retrieval was performed using a microwave method. The tissues were placed in 10 mM sodium citrate buffer and irradiated three times, each for five min, with microwaves. The tissues were cooled in flowing water and blocked for 2 hours with TBS containing 5% horse serum and 0.02% Triton X-100. […]

Mouse colon 26 cell line = assay: Growth of colon 26 cancer tissue, comparison with doxorubicin (Example 21); format: in vivo, mice
Description: The mouse colon 26 cell line used in Example 18 was subcutaneously injected at a dose of 1×10^6 cells into mice and cultured for 5 days.
After cultivation for 5 days, PBS, PBS containing 10 μg of the extruded microvesicles loaded with 3 μg of doxorubicin (doxorubicin-microvesicle), or PBS containing 3, 15 or 60 μg of doxorubicin was injected at a dose of 100 μl once every day via the tail vein into mouse groups, each consisting of 5. The volume of cancer tissue was monitored once every two days. The tumor volume was calculated by the equation v=1s^2/2 wherein (1) is a length of the longest axis of a tumor and (s) is a length of the axis perpendicular to the longest axis.

[2] = White blood cell count in blood of treated mice; format: in vivo; details: 60 μg of doxorubicin daily
Description: Mice were anesthetized by abdominal injection of 150 μL of an anesthetic comprising a mixture of 1:3:6 ketamine:rumpon:PBS, and blood samples were taken from the heart and placed in tubes containing an anti-coagulant agent. A mixture of 10 μL of blood and 90 μL of 1% HCl was stored at room temperature for 7 min, and after 10 μL of the mixture was put into a hematocytometer, and white cells were counted.

doxorubicin delivered to the heart [1]: delivered in a large amount to the heart | doxorubicin in cancer blood vessels [1]: cannot by itself be delivered | reduction of white blood cell count compared to the control [2]: at least 50%
Structure (SMILES): COc1cccc2c1C(=O)c1c(O)c3c(c(O)c1C2=O)C[C@@](O)(C(=O)CO)C[C@@H]3O[C@H]1C[C@H](N)[C@H](O)[C@H](C)O1 [doxorubicin]
equi-effective doxorubicin dose relative to the load of doxorubicin on the microvesicles (Mouse colon 26 cell line; 60 μg versus 3 μg load): 20 fold | dose of doxorubicin alone with the same therapeutic effect as the doxorubicin-loaded microvesicles (Mouse colon 26 cell line; daily tail vein injection, colon 26 tumor): 60 µg
